Test results from ChEMBL document CHEMBL1135124, “Novel bicyclic oxazolone derivatives as anti-angiogenic agents” (Bioorg Med Chem Lett, 2002).
pIC50: −log10 of the molar value.

Assays:
A-431 = assay: Inhibitory activity against proliferation of human epidermoid carcinoma (A431) cells; assay type: functional, cell-based
Gallus gallus = species on record: Gallus gallus; assay: Anti-angiogenic activity was assessed by inhibition of the vascular growth in the chick embryo chorioallantoic membrane (CAM assay) at 125 nM; assay type: functional, tissue-based
L1210 = assay: Inhibitory activity against proliferation of murine leukemia (L1210) cells; assay type: functional, cell-based; settings: Mus musculus

Row | SMILES | pIC50 (A-431) | pIC50 (L1210) | inhibition (Gallus gallus) [%]
1 | CCCCCC1OC1[C@@]1(C)O[C@@H]2OC(=O)N(C(=O)CCl)[C@@H]2CC1=O (stereo partly drawn) | 3.94 | 3.71 | 58
2 | CCCCCCC[C@H]1O[C@@H]2OC(=O)N(C(=O)CCl)[C@@H]2CC1=O | 4.10 | 4.02 | 87
3 | CCCCC/C=C/[C@@]1(C)O[C@@H]2OC(=O)N(C(=O)CCl)[C@@H]2CC1=O | 4.09 | 4.09 | 50
4 | CCCCCC1OC1[C@@]1(C)O[C@@H]2OC(=O)N(C(=O)CCl)[C@@H]2C[C@@]12CO2 (stereo partly drawn) | 4.03 | 4.05 | 
5 | CCCCCCC[C@@]1(C)O[C@@H]2OC(=O)N(C(=O)CCl)[C@@H]2CC1=O | 4.11 | 4.55 | 60
6 | CCCCCC#C[C@@]1(C)O[C@@H]2OC(=O)N(C(=O)CCl)[C@@H]2C[C@H]1O | 4.12 | < 4.00 | 25

Compounds with a higher pIC50 (A-431), results first:

Row | pIC50 (A-431) | pIC50 (L1210) | SMILES | inhibition (Gallus gallus) [%]
7 | 4.28 | < 4.00 | CCCCCC#C[C@@]1(C)O[C@@H]2OC(=O)N(C(=O)CCl)[C@@H]2C[C@@H]1O | 40
8 | 4.48 | 4.66 | CCCCCC1OC1[C@@]1(C)O[C@@H]2OC(=O)N(C(=O)CCl)[C@@H]2C[C@]12CO2 (stereo partly drawn) | 19
9 | 5.30 | 5.10 | CO[C@@H]1[C@H](OC(=O)/C=C/C=C/C=C/C=C/C(=O)O)CC[C@]2(CO2)[C@H]1[C@@]1(C)O[C@@H]1CC=C(C)C [FUMAGILLIN] | 85
10 | 5.30 | 4.49 | CCCCCC#C[C@]1(C)O[C@@H]2OC(=O)N(C(=O)CCl)[C@@H]2CC1=O | 50
11 | 4.19 | 4.13 | COC#C[C@@]1(C)O[C@@H]2OC(=O)N(C(=O)CCl)[C@@H]2CC1=O | 60
12 | 4.33 | 4.51 | CCCCCC#C[C@@]1(C)O[C@@H]2OC(=O)N(C(=O)CCl)[C@@H]2CC1=O | 70
13 | 4.25 | 4.57 | C[C@]1(C#CCCCCc2ccccc2)O[C@@H]2OC(=O)N(C(=O)CCl)[C@@H]2CC1=O | 60
